Data: the NIST ThermoML archive (doi:10.1016/j.jct.2010.08.019)
± gives the expanded uncertainty stated by the source.

Experiment: xn = mol fraction of the nth substance listed
Conditions: for surface tension liquid-gas: Wilhelmy-plate method; for viscosity / mass density: 101 kPa, Liquid; for viscosity: Falling or rolling sphere viscometry; for mass density: Vibrating tube method

C1CCOCC1 [tetrahydropyran] + CC(C)CC(C)(C)C
Conditions	mass density, 293.15 K [kg/m3]	mass density, 303.15 K [kg/m3]	surface tension liquid-gas, 293.15 K [mN/m]	surface tension liquid-gas, 303.15 K [mN/m]	viscosity, 293.15 K [mPa·s]	viscosity, 303.15 K [mPa·s]
x1 = 0.0502	697.82 ± 0.18	689.38 ± 0.18	18.9 ± 0.4	18 ± 0.4	0.506 ± 0.009	0.452 ± 0.009
x1 = 0.1	703.85 ± 0.18	695.35 ± 0.18	19 ± 0.4	18.2 ± 0.4	0.514 ± 0.009	0.455 ± 0.009
x1 = 0.1499	710.17 ± 0.18	701.6 ± 0.18	19.2 ± 0.4	18.3 ± 0.4	0.524 ± 0.009	0.463 ± 0.009
x1 = 0.2	716.8 ± 0.18	708.16 ± 0.19	19.4 ± 0.4	18.6 ± 0.4	0.533 ± 0.009	0.47 ± 0.009
x1 = 0.25	723.72 ± 0.18	715.01 ± 0.19	19.6 ± 0.4	18.8 ± 0.4	0.544 ± 0.009	0.478 ± 0.009
x1 = 0.2999	–	722.17 ± 0.19	–	19 ± 0.4	–	0.488 ± 0.009
x1 = 0.3	730.98 ± 0.19	–	19.8 ± 0.4	–	0.553 ± 0.009	–
x1 = 0.3498	–	729.67 ± 0.19	–	19.2 ± 0.4	–	0.497 ± 0.009
x1 = 0.35	738.59 ± 0.19	–	20.1 ± 0.4	–	0.564 ± 0.009	–
x1 = 0.3998	–	737.56 ± 0.19	–	19.5 ± 0.4	–	0.509 ± 0.009
x1 = 0.4	746.55 ± 0.19	–	20.3 ± 0.4	–	0.577 ± 0.009	–
x1 = 0.4498	754.88 ± 0.19	745.84 ± 0.19	20.6 ± 0.4	19.7 ± 0.4	0.592 ± 0.009	0.52 ± 0.009
x1 = 0.5001	763.72 ± 0.19	754.6 ± 0.2	20.9 ± 0.4	20 ± 0.4	0.606 ± 0.009	0.533 ± 0.009
x1 = 0.5501	772.97 ± 0.2	763.76 ± 0.2	21.2 ± 0.4	20.3 ± 0.4	0.623 ± 0.01	0.546 ± 0.009
x1 = 0.5999	782.67 ± 0.2	773.38 ± 0.2	21.6 ± 0.4	20.6 ± 0.4	0.638 ± 0.01	0.56 ± 0.009
x1 = 0.6501	793 ± 0.2	783.61 ± 0.21	22 ± 0.4	21 ± 0.4	0.655 ± 0.01	0.574 ± 0.009
x1 = 0.6999	803.82 ± 0.21	794.32 ± 0.21	22.5 ± 0.4	21.5 ± 0.4	0.675 ± 0.01	0.59 ± 0.009
x1 = 0.75	815.32 ± 0.21	805.72 ± 0.21	23.1 ± 0.4	22.1 ± 0.4	0.696 ± 0.01	0.607 ± 0.01
x1 = 0.8	827.51 ± 0.22	817.78 ± 0.22	23.6 ± 0.4	22.6 ± 0.4	0.718 ± 0.01	0.625 ± 0.01
x1 = 0.8501	840.43 ± 0.22	830.59 ± 0.22	24.3 ± 0.4	23.3 ± 0.4	0.743 ± 0.01	0.646 ± 0.01
x1 = 0.9	854.12 ± 0.23	844.14 ± 0.23	25.2 ± 0.4	24.2 ± 0.4	0.771 ± 0.01	0.67 ± 0.01
x1 = 0.95	868.68 ± 0.24	858.58 ± 0.24	26.3 ± 0.4	25.2 ± 0.4	0.803 ± 0.011	0.699 ± 0.01
x1 = 1	884.27 ± 0.23	874.07 ± 0.23	27.5 ± 0.4	26.2 ± 0.4	0.86 ± 0.011	0.749 ± 0.01
